According to ChEMBL document CHEMBL5634158, “From garden to lab: C-3 chemical modifications of tomatidine unveil broad-spectrum ATP synthase inhibitors to combat bacterial resistance” (Eur J Med Chem, 2023):
In brackets after ≈: the same amount, converted by molar mass.

How the values were obtained:
[1] = Inhibition of Escherichia coli ATCC 25922 ATP synthase activity preincubated for 30 mins followed by NADH/ADP addition and measured after 60 mins by luciferin/luciferase luminescence assay
[2] = Inhibition of Staphylococcus aureus ATCC 29213 ATP synthase activity preincubated for 30 mins followed by NADH/ADP addition and measured after 60 mins by luciferin/luciferase luminescence assay
Escherichia coli [3] = assay: Antibacterial activity against Escherichia coli ATCC 25922 assessed as reduction in microbial growth incubated for 20 hrs under aerobic condition by CLSI based broth microdilution method; assay type: functional
Staphylococcus aureus [4] = assay: Antibacterial activity against Staphylococcus aureus ATCC 29213 assessed as reduction in microbial growth incubated for 20 hrs under aerobic condition by CLSI based broth microdilution method; assay type: functional
Staphylococcus aureus [5] = assay: Antibacterial activity against Staphylococcus aureus ATCC 29213 hemB SCV assessed as reduction in microbial growth incubated for 20 hrs under aerobic condition by CLSI based broth microdilution method; assay type: functional
Escherichia coli [6] = assay: Antibacterial activity against Escherichia coli MC4100 assessed as reduction in bacterial growth by CLSI based broth microdilution method; assay type: functional
Escherichia coli [7] = assay: Antibacterial activity against Escherichia coli MC4100 harbouring acrAB mutant assessed as reduction in bacterial growth by CLSI based broth microdilution method; assay type: functional
Escherichia coli [8] = assay: Antibacterial activity against Escherichia coli MC4100 harbouring lptD mutant assessed as reduction in bacterial growth by CLSI based broth microdilution method; assay type: functional
Escherichia coli [9] = assay: Antibacterial activity against Escherichia coli ATCC 25922 assessed as fold decrease in MIC for 20 hrs under aerobic condition by CLSI based broth microdilution method; assay type: functional

| Structure (SMILES) | IC50 [1] [nM] | IC50 [2] [nM] | MIC (Escherichia coli [3]) [µg/mL] | MIC (Staphylococcus aureus [4]) [µg/mL] | MIC (Staphylococcus aureus [5]) [µg/mL] | MIC (Escherichia coli [6]) [µg/mL] | MIC (Escherichia coli [7]) [µg/mL] | MIC (Escherichia coli [8]) [µg/mL] | fold change (FC) (Escherichia coli [9]) |
| --- | --- | --- | --- | --- | --- | --- | --- | --- | --- |
| O=[N+]([O-])c1ccc(Cl)c2nonc12 | 3940 | 1700 | – | – | – | – | – | – | – |
| C[C@H]1CC[C@]2(NC1)O[C@H]1C[C@H]3[C@@H]4CC[C@H]5CC(NCCN)CC[C@]5(C)[C@H]4CC[C@]3(C)[C@H]1[C@@H]2C (some centres undefined) | 1300 | – | 32 | 8 | 0.006 | 16 (≈ 35 µM) | 8 (≈ 17.5 µM) | 0.5 (≈ 1.09 µM) | – |
| C[C@H]1CC[C@]2(NC1)O[C@H]1C[C@H]3[C@@H]4CC[C@H]5CC(NC[C@@H](N)Cc6ccc(Br)cc6)CC[C@]5(C)[C@H]4CC[C@]3(C)[C@H]1[C@@H]2C (some centres undefined) | – | – | 8 | 2 | ≤ 0.25 | – | – | – | 2 |
| C[C@H]1CC[C@]2(NC1)O[C@H]1C[C@H]3[C@@H]4CC[C@H]5CC(NC[C@@H](N)Cc6c[nH]c7ccccc67)CC[C@]5(C)[C@H]4CC[C@]3(C)[C@H]1[C@@H]2C (mixture of isomers) | 1900 | – | 8 | 2 | – | 16 | 4 | 2 | – |
| C[C@H]1CC[C@]2(NC1)O[C@H]1C[C@H]3[C@@H]4CC[C@H]5CC(NC[C@@H](N)Cc6ccc(-c7ccccc7)cc6)CC[C@]5(C)[C@H]4CC[C@]3(C)[C@H]1[C@@H]2C (mixture of isomers) | 3400 | – | 8 | 2 | – | 8 | 8 | 2 | – |
| C[C@H]1CC[C@]2(NC1)O[C@H]1C[C@H]3[C@@H]4CC[C@H]5CC(NC[C@@H](N)Cc6ccccc6)CC[C@]5(C)[C@H]4CC[C@]3(C)[C@H]1[C@@H]2C (mixture of isomers) | 1300 | – | 32 | 4 | – | 32 | 8 | 4 | – |
| C[C@H]1CC[C@]2(NC1)O[C@H]1C[C@H]3[C@@H]4CC[C@H]5CC(NC[C@@H](N)Cc6ccc(Cl)cc6)CC[C@]5(C)[C@H]4CC[C@]3(C)[C@H]1[C@@H]2C (mixture of isomers) | – | – | 8 | 2 | ≤ 0.25 | – | – | – | 2 |
| C[C@H]1CC[C@]2(NC1)O[C@H]1C[C@H]3[C@@H]4CC[C@H]5CC(NC[C@@H](N)Cc6ccc(I)cc6)CC[C@]5(C)[C@H]4CC[C@]3(C)[C@H]1[C@@H]2C (mixture of isomers) | 1500 | – | 4 | 2 | ≤ 0.25 | 8 | 4 | 2 | 2 |
| C[C@H]1CC[C@]2(NC1)O[C@H]1C[C@H]3[C@@H]4CC[C@H]5CC(NC[C@@H](N)Cc6ccncc6)CC[C@]5(C)[C@H]4CC[C@]3(C)[C@H]1[C@@H]2C (mixture of isomers) | 1500 | – | > 128 | 16 | – | > 128 | 32 | 16 | – |
